Five compounds from patent US9321722B2, “Bis-indolic derivatives, their uses in particular as antibacterials” (UNIVERSITE JOSEPH FOURIER, priority 2011, dated 2016) can be followed below.

The test system of assay [1] is Haemophilus influenzae ATCC 49766. Description: MIC microdilution (Table I-1). Particulars: ATCC49766; Haemophilus influenzae ATCC 49766; read after 18 hours; read-out: MIC. It is filed as cell-based. The method, then:
(§1) The microdilution method recommended by the Clinical and Laboratory Standard Institute [M07-A8, Vol. 29, N^o 2] was used. The activity of indolic compounds was tested against 29 bacterial strains belonging to 17 different species and 12 different genera (Staphylococcus, Streptococcus, Enterococcus, Listeria, Bacillus, Haemophilus, Escherichia, Klebsiella, Enterobacter, Serratia, Pseudomonas, and Acinetobacter). Bacterial inocula were prepared in Mueller Hinton broth (MH2, bioMerieux, Marcy L'Etoile, France), supplemented with 10% sheep blood for fastidious species (i.e., Streptococcus pneumoniae and Haemophilus influenzae). They were dispensed in 96 well microtiter plates (5×10^5 CFU/ml of final inoculum). Indolic compounds were added to the wells as to obtain two-fold serial concentrations (0.50-128 mg/L of final concentrations). Plates were incubated at 37° C. in ambient air, or at 37° C. in 5% CO2 enriched atmosphere for fastidious species. […] Drug-free cultures served as growth controls. Cultures receiving gentamicin, ciprofloxacin or cefotaxime served as positive controls.
(In general: Dilution methods test growth across graded concentrations, often in twofold steps.)

The test system of assay [2] is S. aureus ATCC 25923. Put plainly: MIC microdilution (Table I-1). The assay is classed as cell-based. Particulars: Staphylococcus aureus, ATCC25923, read after 18 hours. As to the method: as §1
The test system of assay [3] is E. faecalis ATCC 29212. Description: MIC microdilution (Table I-1). The assay is classed as cell-based. Particulars: Enterococcus faecalis, ATCC29212, read after 18 hours, read-out: MIC. The method, then: as §1
Assay [4] has as its system E. faecium CIP 54.32. Description: MIC microdilution (Table I-1). Particulars: Enterococcus faecium, CIP54, read after 18 hours, read-out: MIC. The assay is classed as cell-based. The method, then:
as §1

In assay [5] the test system is Bacillus subtilis CIP 5262. Put plainly: MIC microdilution (Table I-1). It is filed as cell-based. Particulars: CIP5262, read after 18 hours, read-out: MIC. As to the method:
as §1

The subject of assay [6] is S. pyogenes (group A) CIP 104226. Put plainly: MIC microdilution (Table I-1). It is filed as cell-based. Particulars: Streptococcus pyogenes, CIP104226, read after 18 hours, read-out: MIC. The method, then: as §1
The test system of assay [7] is Klebsiella pneumoniae ATCC 35657. Put plainly: MIC microdilution (Table I-1). The assay is classed as cell-based. Particulars: ATCC35657, read after 18 hours, read-out: MIC. As to the method: as §1
For assay [8], the system named is Enterobacter cloacae ATCC 13047. Put plainly: MIC microdilution (Table I-1). Particulars: ATCC13047, read after 18 hours. It is filed as cell-based. The method, then: as §1
In assay [9] the test system is Escherichia coli ATCC 25922. Description: MIC microdilution (Table I-1). It is filed as cell-based. Particulars: ATCC25922, read after 18 hours. As to the method:
as §1

For assay [10], the system named is Acinetobacter baumanii ATCC 19606. Put plainly: MIC microdilution (Table I-1). The assay is classed as cell-based. The note with it: Acinetobacter baumannii, ATCC19606, read after 18 hours. The method, then: as §1
For assay [11], the system named is Pseudomonas aeruginosa CIP 5933. Put plainly: MIC microdilution (Table I-1). It is filed as cell-based. The note with it: CIP5933, read after 18 hours. As to the method: as §1
In assay [12] the test system is S. mitis CIP 103335. Description: MIC microdilution (Table I-1). Particulars: Streptococcus mitis, CIP103335, read after 18 hours, read-out: MIC. The assay is classed as cell-based. The method, then: as §1
The subject of assay [13] is Staphylococcus aureus 1199B (overexpression of the NorA efflux pump). Put plainly: Efflux pump inhibition assay with sub-inhibitory ciprofloxacin. It is filed as cell-based. As to the method:
The efflux pump inhibition potential of the bis-indolic derivatives was tested using two steps. In a first step, the intrinsic antibacterial activity of the compounds was assayed against the following strains:
The following experimental protocol was used: indolic derivatives (initially solubilised in DMSO at 10 mg/mL) were dispensed in a 96-wells microplate by two fold serial dilutions in Muller-Hinton medium (MH, Bio Rad) using a Biomek 2000 (Beckman) handling robot. 100 μL of the bacterial inoculum (an overnight culture at 37° C. in 5 mL MH diluted 100-fold) was then added in each well. The total volume was 200 μL in each well and the final bacteria concentration 10^6 CFU/mL (CFU: colony forming unit). The highest final indolic derivative concentration was 128 mg/L. Growth was assayed with a microplate reader by monitoring absorption at 620 nm after 1, 2, 5, 7 and 24 h incubation at 37° C. In addition, the plates were read visually after 24 hours incubation. Cultures containing 5 μL DMSO were used as growth controls. In addition, two controls containing a sub-inhibitory or a inhibitory antibiotic concentration for the tested strain were performed. The antibiotics used were ampicillin (0.5 and 32 μg/mL) for E. coli, kanamycin (0.5 and 16 μg/mL) for S. aureus ATCC 25923, ciprofloxacin (4 and 64 mg/L) for S. aureus 1199B, ciprofloxacin (0.5 and 2 mg/L) for S. aureus K2378. All experiments were performed in duplicate.
Efflux pump inhibition assays were then performed against resistant Staphylococcus aureus strains SA 1199B and SA K2378 for bis-indolic derivatives. […] The minimal inhibitory concentration (MIC) of the bis-indolic compound allowing a complete inhibition of the bacterial growth in the presence of ciprofloxacin was determined.

Assay [14] deals with S. aureus ATCC 6538. Description: MIC microdilution (Table I-1). It is filed as cell-based, Staphylococcus aureus. Particulars: Staphylococcus aureus, ATCC6538, read after 18 hours, read-out: MIC. As to the method: as §1
For assay [15], the system named is S. aureus CIP 65.6. Description: MIC microdilution (Table I-1). It is filed as cell-based, Staphylococcus aureus. The note with it: Staphylococcus aureus, CIP65, read after 18 hours, read-out: MIC. The method, then:
as §1

The test system of assay [16] is S. aureus ATCC 29213. Put plainly: MIC microdilution (Table I-1). The assay is classed as cell-based, Staphylococcus aureus. Particulars: Staphylococcus aureus, ATCC29213, read after 18 hours, read-out: MIC. The method, then: as §1
Assay [17] has as its system S. aureus ATCC 33592 (MRSA). Put plainly: MIC microdilution (Table I-1). The assay is classed as cell-based, Staphylococcus aureus. Particulars: Staphylococcus aureus, read after 18 hours, read-out: MIC. The method, then:
as §1

Assay [18] relates to S. aureus ATCC 9144. Put plainly: MIC microdilution (Table I-1). The assay is classed as cell-based, Staphylococcus aureus. Particulars: Staphylococcus aureus, ATCC9144, read after 18 hours, read-out: MIC. The method, then: as §1
For assay [19], the system named is S. aureus CIP 103428. Description: MIC microdilution (Table I-1). It is filed as cell-based, Staphylococcus aureus. Particulars: Staphylococcus aureus, CIP103428, read after 18 hours, read-out: MIC. As to the method: as §1
For assay [20], the system named is S. aureus SA-1199B. Description: MIC microdilution (Table I-1). The assay is classed as cell-based, Staphylococcus aureus. Particulars: Staphylococcus aureus, SA1199B, 18 h. The method, then: as §1
Assay [21] deals with S. aureus ATCC 106414 (VISA). Put plainly: MIC microdilution (Table I-1). The assay is classed as cell-based, Staphylococcus aureus. The note with it: Staphylococcus aureus, read after 18 hours, read-out: MIC. As to the method:
as §1

In assay [22] the test system is S. aureus CIP 65.25 (MRSA). Put plainly: MIC microdilution (Table I-1). The assay is classed as cell-based, Staphylococcus aureus. Particulars: Staphylococcus aureus, read after 18 hours, read-out: MIC. As to the method:
as §1

The mark [23] stands for this setting: in the presence of ciprofloxacin 4 mg/L (MIC/4).

In brackets after ≈: the same amount, converted by molar mass. Some results are limits rather than exact numbers.

In the case of `CC(C)(C)OC(=O)NCC(NC(=O)C(=O)c1c[nH]c2ccccc12)c1c[nH]c2ccccc12` (stereo not shown) [Compound 2, tert-Butyl(2-(2-(1H-indol-3-yl)-2-oxoacetamido)-2-(1H-indol-3-yl)ethyl)carbamate], the MIC in assay [1], in assay [2], in [3], in [4], in [5] and in assay [6] was > 128 µg/mL throughout. Further, the MIC in [7], in assay [8], in [9], in [10], in [11] and in assay [12] was > 128 µg/mL throughout. In addition, the MIC in assay [14], in assay [15], in assay [16], in assay [17], in assay [18] and in assay [19] was > 128 µg/mL in each case. Besides, the MIC in assay [20], in [21] and in assay [22] was > 128 µg/mL throughout. Also, the results for the “CMI, mg/L (Ciprofloxacin concentration, mg/L)” value (“CMI, mg/L” for short) in assay [13] (in the presence of ciprofloxacin 2 mg/L (MIC/8)) and in assay [13] (setting [23]) were 2 (2) mg/L and 0.5 (4) mg/L, respectively.

As to `CC(C)(C)OC(=O)NCC(NC(=O)C(=O)c1c[nH]c2ccc(Br)cc12)c1c[nH]c2ccc(Br)cc12` (stereo not shown) [Compound 4, tert-Butyl(2-(5-bromo-1H-indol-3-yl)-2-(2-(5-bromo-1H-indol-3-yl)-2-oxoacetamido)ethyl) carbamate], the MIC is 1.6 µg/mL (≈ 2.65 µM) in [2]; > 128 µg/mL in [7]; > 128 µg/mL in [8]; > 128 µg/mL in assay [9]; > 128 µg/mL in assay [10]; > 128 µg/mL in assay [11]. For the same compound, the MIC is 0.8 µg/mL (≈ 1.32 µM) in assay [14]; 0.8 µg/mL (≈ 1.32 µM) in [15]; 0.8 µg/mL (≈ 1.32 µM) in [16]; 0.8 µg/mL (≈ 1.32 µM) in [17]; 0.8 µg/mL (≈ 1.32 µM) in assay [18]; 1.6 µg/mL (≈ 2.65 µM) in [19]. The MIC in assay [20] stood at 1.6 µg/mL (≈ 2.65 µM); in assay [21] it was 0.8 µg/mL (≈ 1.32 µM); in [22], 1.6 µg/mL (≈ 2.65 µM).

On to `CC(NC(=O)C(=O)c1c[nH]c2ccc(Br)cc12)c1c[nH]c2ccc(Br)cc12` (stereo not shown) [Compound 5, 2-(5-Bromo-1H-indol-3-yl)-N-(1-(5-bromo-1H-indol-3-yl)ethyl)-2-oxoacetamide], for which the MIC in [1] stood at 32 µg/mL (≈ 65.4 µM); in assay [2] it was 1 µg/mL (≈ 2.04 µM); in assay [3], 128 µg/mL (≈ 262 µM); in assay [4] it was 64 µg/mL (≈ 131 µM); in assay [5] it was 64 µg/mL (≈ 131 µM); in [6] it was 32 µg/mL (≈ 65.4 µM). Also, the MIC in assay [7] is > 128 µg/mL; in assay [8], > 128 µg/mL; in [9] it was > 128 µg/mL; in assay [10], > 128 µg/mL; in [11] it was > 128 µg/mL; in assay [12], 64 µg/mL (≈ 131 µM). The MIC in assay [14] was 1 µg/mL (≈ 2.04 µM); in [15], 2 µg/mL (≈ 4.09 µM); in assay [16], 1 µg/mL (≈ 2.04 µM); in [17] it was 1 µg/mL (≈ 2.04 µM); in assay [18] it was 1 µg/mL (≈ 2.04 µM); in assay [19], 1 µg/mL (≈ 2.04 µM). Further, the MIC in [20] is 2 µg/mL (≈ 4.09 µM); in assay [21], 1 µg/mL (≈ 2.04 µM); in assay [22], 1 µg/mL (≈ 2.04 µM).

Regarding `O=C(C(=O)N1CCCCC1c1c[nH]c2ccccc12)c1c[nH]c2ccccc12` (stereo not shown) [Compound 6a, 1-(2-(1H-Indol-3-yl)piperidin-1-yl)-2-(1H-indol-3-yl)ethane-1,2-dione], the MIC in assay [1], in assay [2], in assay [3], in assay [4], in assay [5] and in assay [6] was > 128 µg/mL each time. Further, the MIC in [7], in assay [8], in assay [9], in [10], in assay [11] and in assay [12] was > 128 µg/mL throughout. Further, the MIC in [14], in [15], in [16], in assay [17], in [18] and in assay [19] was > 128 µg/mL in each case. Moreover, the MIC in assay [20], in assay [21] and in assay [22] was > 128 µg/mL each time. Moreover, in assay [13] (setting [23]), the “CMI, mg/L” value was <0.125 (4) mg/L.

Turning to `O=C(C(=O)N1CCOCC1c1c[nH]c2ccccc12)c1c[nH]c2ccccc12` (stereo not shown) [Compound 6b, 1-(3-(1H-Indol-3-yl)morpholino)-2-(1H-indol-3-yl)ethane-1,2-dione], the MIC in assay [1], in assay [2], in assay [3], in assay [4], in assay [5] and in [6] was > 128 µg/mL in each case. Further, the MIC in assay [7], in assay [8], in assay [9], in [10], in assay [11] and in assay [12] was > 128 µg/mL in each case. For the same compound, the MIC in [14], in assay [15], in [16], in assay [17], in assay [18] and in assay [19] was > 128 µg/mL throughout. The MIC in assay [20], in assay [21] and in [22] was > 128 µg/mL throughout. Moreover, in assay [13] (setting [23]), the “CMI, mg/L” value is listed as 0.5 (4) mg/L.
